# According to patent publication US20150125452A1, “COMBINATION TREATMENTS COMPRISING C-MET ANTAGONISTS AND B-RAF ANTAGONISTS” (GENENTECH, INC., priority 2011, published 2015):
# What was measured:
# Assay type in all cases: cell-based, Human
# [1] = test system: HER2-amplified breast cancer cell lines; test: Syto 60 cell viability, ligand rescue from lapatinib; settings: 50 ng/mL ligand, 72 h
# Procedure: Cell viability was assessed using the nucleic acid stain Syto 60 (Invitrogen). Cells (3000-5000 per well) were seeded into 96 well plates and allowed to adhere overnight. The next day, cells were treated with (or without) 50 ng/mL RTK ligand and concomitantly exposed to an increasing concentration range of the relevant kinase inhibitor. Following 72 hours drug exposure, cells were fixed in 4% formaldehyde, stained with Syto 60 and cell number was assessed using an Odyssey scanner (Li-Cor). Cell viability was calculated by dividing the fluorescence obtained from the drug-treated cells by the fluorescence obtained from the control (no drug) treated cells.
# The ability of HGF to rescue 3 of 9 tested HER2-amplified breast cancer cell lines from growth inhibition by the HER2 kinase inhibitor lapatinib was also unexpected (FIG. 3A). These 3 cell lines all express MET, and expression was well correlated with the ability of HGF to attenuate lapatinib response (FIG. 3B).
# [2] = test system: BRAF mutant melanoma cell lines; test: Syto 60 cell viability, HGF rescue from PLX[…]; settings: additional twelve cell lines
# Procedure: Cells were treated twice weekly for the indicated times. […] Error bars represent mean+/−s.e.m.
# (§1) Cell viability was assessed using the nucleic acid stain Syto 60 (Invitrogen). Cells (3000-5000 per well) were seeded into 96 well plates and allowed to adhere overnight. The next day, cells were treated with (or without) 50 ng/mL RTK ligand and concomitantly exposed to an increasing concentration range of the relevant kinase inhibitor. […] Cell viability was calculated by dividing the fluorescence obtained from the drug-treated cells by the fluorescence obtained from the control (no drug) treated cells.
# [3] = test system: H3122 EML4-ALK translocated NSCLC cancer cell line; test: Cell viability assay with TAE684 or crizotinib and HGF; settings: TAE684, 50 ng/mL HGF, 72 h
# Procedure: Error bars represent mean+/−s.e.m.
# as §1
# [4] = test system: AKT and ERK phosphorylation; test: Immunoblots of survival pathway re-activation
# Procedure: FIGS. 2A-2C: pro-survival pathway re-activation correlated with RTK ligand rescue. FIG. 2A, Immunoblots showing the effect of acute RTK ligand treatment (50 ng/mL) on AKT and ERK phosphorylation following kinase inhibition (1 μM, 2 h). RTK ligand rescue is indicated, grey squares indicates complete rescue and black squares indicates partial rescue as determined by the initial screen (FIG. 1B). […] Cells were co-treated with 50 ng/mL RTK ligand in the presence of the appropriate secondary kinase inhibitor (0.5 μM) as indicated. […] Error bars represent mean+/−s.e.m. FIG. 2C, Immunoblots showing the effect of acute kinase inhibition (1 μM) in the presence and absence of RTK ligands (50 ng/mL, 2 h) on AKT and ERK phosphorylation. Cells were co-treated with secondary kinase inhibitor (0.5 μM) as appropriate.
# Cell lysates were harvested using Nonidet-P40 lysis buffer, supplemented with Halt protease and phosphatase inhibitor cocktail (Thermo Scientific) and immunodetection of proteins was carried out using standard protocols. The phospho-HER2 (Y1248; #2247), HER2 (#2242), phospho-HER3 (Y1289; #4791), phospho-MET (Y1234/5; #3126), PDGFRα (#5241), phospho-FRS2α (Y196; #3864), IGF-1Rβ (#3027), phospho-ALK (Y1604; #3341), AKT (#9272), phospho-ERK (T202/Y204; #9101), ERK (#9102), GAPDH (#2118) and β-Tubulin (#2146) antibodies were purchased from Cell Signaling Technologies. Antibodies to HER3 (SC-285), MET (SC-10), phospho-PDGFRα (SC-12911), FRS2α (SC-8318), FGFR1 (SC-7945), FGFR2 (SC-122), FGFR3 (SC-13121) and ALK (SC-25447) were purchased from Santa Cruz Biotechnologies. Phospho-AKT (S473; #44-621G) antibody was purchased from Invitrogen. Phospho-EGFR (Y1068; ab5644) antibody was purchased from Abeam. EGFR (#610017) antibody was purchased from BD Biosciences. PARP (#14-6666-92) antibody was purchased from eBioscience. Densitometry was carried out using ImageJ software.
substance,measurement,setting,value
HGF: recombinant human RTK ligand (MET ligand) purchased from Peprotech,number of HER2-amplified breast cancer cell lines rescued from lapatinib,[1],3 of 9
same,number of additional BRAF mutant melanoma lines with HGF-attenuated PLX[…] sensitivity,[2],5 of the 12
same,rescue from ALK inhibition by HGF,[3],efficiently rescued from ALK inhibition
same,PI3K/MAPK pathway re-activation by RTK ligand in presence of kinase inhibitor,"[4]; 50 ng/mL ligand, kinase inhibitor 1 μM, 2 h",re-activated both PI3K and MAPK pathways
same,re-activation of PI3K and MAPK signalling in HER2 amplified cell lines,"[4]; AU565, HCC1954 (MET positive), BT474 (MET negative), lapatinib 1 μM, HGF 50 ng/mL, 2 h","re-activated PI3K and MAPK signalling pathways specifically in MET-positive, but not in MET-negative cells"
same,persistence of redundant RTK activation and downstream survival signalling,"[4]; AU565 cells, lapatinib 1 μM and HGF 50 ng/mL",at least 48 hours
same,re-activation of AKT and ERK activity in presence of TAE684,[4]; H2228 cells,able to re-activate AKT and ERK activity
same,ERK and AKT activation in presence of TAE684,"[4]; H3122 cells, TAE684 1 μM, HGF 50 ng/mL, 2 h",promotes ERK and AKT activation
same,re-activation of MAPK signalling (pERK) in BRAF mutant cell lines,"[4]; PLX[…] 1 μM, HGF 50 ng/mL, 2 h, MET positive versus MET negative lines",could re-activate MAPK signalling in cell lines that were rescued by HGF
